Data from ChEMBL document CHEMBL3885881, “DrugMatrix”.

Organism: Rattus norvegicus
Assay: DrugMatrix - Regimen: Daily Repeat
Format: toxicity, organism-based, Sprague-Dawley
Parameters: regimen Daily Repeat, gender Male, age 6-8 weeks
Conditions: in vivo, po, route oral GAVAGE, vehicle .5 % CMC; for ABSOLUTE BASOPHIL / ABSOLUTE EOSINOPHIL / ABSOLUTE LYMPHOCYTE / ABSOLUTE MONOCYTE / ABSOLUTE SEGMENTED NEUTROPHIL / BASOPHIL / EOSINOPHIL / ERYTHROCYTE COUNT / HEMATOCRIT / HEMOGLOBIN / LEUKOCYTE COUNT / LYMPHOCYTE / MEAN CORPUSCULAR HEMOGLOBIN / MEAN CORPUSCULAR HEMOGLOBIN CONCENTRATION / MEAN CORPUSCULAR VOLUME / MONOCYTE / NEUTROPHIL / NUCLEATED RED BLOOD CELLS / PLATELET COUNT: tissue Blood; for ALANINE AMINOTRANSFERASE / ALBUMIN / ALKALINE PHOSPHATASE / ASPARTATE AMINOTRANSFERASE / BLOOD UREA NITROGEN / CARBON DIOXIDE / CHLORIDE / CHOLESTEROL / CREATINE PHOSPHOKINASE / CREATININE / GLUCOSE / LACTATE DEHYDROGENASE / LIPASE / PHOSPHORUS / POTASSIUM / SODIUM / TOTAL BILIRUBIN / TOTAL PROTEIN / URIC ACID: tissue Plasma
[1] = 100 mg/kg, 72 h, dose level Low, time 3 day
[2] = 100 mg/kg, 120 h, dose level Low, time 5 day
[3] = 1000 mg/kg, 72 h, dose level High, time 3 day
[4] = 1000 mg/kg, 120 h, dose level High, time 5 day

In the case of `CC1CN(c2cc3c(cc2F)c(=O)c(C(=O)O)cn3-c2ccc(F)cc2F)CCN1` (configuration not stated) [TEMAFLOXACIN], the “ABSOLUTE BASOPHIL” value [1] is reported as 0 CELLS/uL, the “ABSOLUTE EOSINOPHIL” value [1] is reported as 0 CELLS/uL and the “ABSOLUTE LYMPHOCYTE” value [1] is reported as 10703 CELLS/uL. For the same compound, the “ABSOLUTE MONOCYTE” value [1] was 236.33 CELLS/uL, the “ABSOLUTE SEGMENTED NEUTROPHIL” value [1] was 1027.33 CELLS/uL and the BASOPHIL [1] was 0%. The EOSINOPHIL [1] was 0%, the “ERYTHROCYTE COUNT” value [1] was 5.1 x10E6/uL and the HEMATOCRIT [1] was 32.03%. For the same compound, the HEMOGLOBIN [1] was 12.13 G/DL, the “LEUKOCYTE COUNT” value [1] was 11.97 x10E3/uL and the LYMPHOCYTE [1] was 88.33%. The “MEAN CORPUSCULAR HEMOGLOBIN” value [1] was 23.83 pg, the “MEAN CORPUSCULAR HEMOGLOBIN CONCENTRATION” value [1] was 37.93 G/DL and the “MEAN CORPUSCULAR VOLUME” value [1] was 62.83 fL. The MONOCYTE [1] was 2.33%, the NEUTROPHIL [1] was 9.33% and the “NUCLEATED RED BLOOD CELLS” value [1] was 0 /100WBC. For the same compound, the “PLATELET COUNT” value [1] was 1089.33 x10E3/uL, the “ALANINE AMINOTRANSFERASE” value [1] was 64.67 u/L and the ALBUMIN [1] was 4.07 G/DL. For the same compound, the “ALKALINE PHOSPHATASE” value [1] was 401.33 u/L, the “ASPARTATE AMINOTRANSFERASE” value [1] was 92.33 u/L and the “BLOOD UREA NITROGEN” value [1] was 15.67 mg/dL. The “CARBON DIOXIDE” value [1] was 35 mmol/L, the CHLORIDE [1] was 98.67 MEQ/L and the CHOLESTEROL [1] was 91 mg/dL. For the same compound, the “CREATINE PHOSPHOKINASE” value [1] was 525.67 u/L, the CREATININE [1] was 0.24 mg/dL and the GLUCOSE [1] was 143 mg/dL. The “LACTATE DEHYDROGENASE” value [1] was 134.67 u/L, the LIPASE [1] was 9 u/L and the PHOSPHORUS [1] was 12.2 mg/dL. The POTASSIUM [1] was 5.94 MEQ/L, the SODIUM [1] was 143.63 MEQ/L and the “TOTAL BILIRUBIN” value [1] was 0.23 mg/dL. For the same compound, the “TOTAL PROTEIN” value [1] was 6.3 G/DL, the “URIC ACID” value [1] was 0.53 mg/dL and the “ABSOLUTE BASOPHIL” value [2] was 0 CELLS/uL. For the same compound, the “ABSOLUTE EOSINOPHIL” value [2] was 33 CELLS/uL, the “ABSOLUTE LYMPHOCYTE” value [2] was 9070.33 CELLS/uL and the “ABSOLUTE MONOCYTE” value [2] was 218.67 CELLS/uL. For the same compound, the “ABSOLUTE SEGMENTED NEUTROPHIL” value [2] was 878 CELLS/uL, the BASOPHIL [2] was 0% and the EOSINOPHIL [2] was 0.33%. For the same compound, the “ERYTHROCYTE COUNT” value [2] was 5.56 x10E6/uL, the HEMATOCRIT [2] was 33.53% and the HEMOGLOBIN [2] was 12.97 G/DL. The “LEUKOCYTE COUNT” value [2] was 10.2 x10E3/uL, the LYMPHOCYTE [2] was 88.67% and the “MEAN CORPUSCULAR HEMOGLOBIN” value [2] was 23.37 pg. For the same compound, the “MEAN CORPUSCULAR HEMOGLOBIN CONCENTRATION” value [2] was 38.7 G/DL, the “MEAN CORPUSCULAR VOLUME” value [2] was 60.37 fL and the MONOCYTE [2] was 2%. The NEUTROPHIL [2] was 9%, the “NUCLEATED RED BLOOD CELLS” value [2] was 0 /100WBC and the “PLATELET COUNT” value [2] was 1110.67 x10E3/uL. For the same compound, the “ALANINE AMINOTRANSFERASE” value [2] was 48.67 u/L, the ALBUMIN [2] was 4.43 G/DL and the “ALKALINE PHOSPHATASE” value [2] was 449.67 u/L. For the same compound, the “ASPARTATE AMINOTRANSFERASE” value [2] was 74.33 u/L, the “BLOOD UREA NITROGEN” value [2] was 15.33 mg/dL and the “CARBON DIOXIDE” value [2] was 37 mmol/L. The CHLORIDE [2] was 98 MEQ/L, the CHOLESTEROL [2] was 89.67 mg/dL and the “CREATINE PHOSPHOKINASE” value [2] was 298.67 u/L. The CREATININE [2] was 0.34 mg/dL, the GLUCOSE [2] was 138.67 mg/dL and the “LACTATE DEHYDROGENASE” value [2] was 126 u/L. It also gave an LIPASE [2] of 7.67 u/L, a PHOSPHORUS [2] of 12.27 mg/dL and a POTASSIUM [2] of 5.95 MEQ/L. The SODIUM [2] was 144.33 MEQ/L, the “TOTAL BILIRUBIN” value [2] was 0.23 mg/dL and the “TOTAL PROTEIN” value [2] was 6.37 G/DL. The “URIC ACID” value [2] was 0.8 mg/dL, the “ABSOLUTE BASOPHIL” value [3] was 0 CELLS/uL and the “ABSOLUTE EOSINOPHIL” value [3] was 0 CELLS/uL. For the same compound, the “ABSOLUTE LYMPHOCYTE” value [3] was 8968.67 CELLS/uL, the “ABSOLUTE MONOCYTE” value [3] was 91.33 CELLS/uL and the “ABSOLUTE SEGMENTED NEUTROPHIL” value [3] was 740 CELLS/uL. The BASOPHIL [3] was 0%, the EOSINOPHIL [3] was 0% and the “ERYTHROCYTE COUNT” value [3] was 5.3 x10E6/uL. The HEMATOCRIT [3] was 32.17%, the HEMOGLOBIN [3] was 12.37 G/DL and the “LEUKOCYTE COUNT” value [3] was 9.8 x10E3/uL. The LYMPHOCYTE [3] was 91.33%, the “MEAN CORPUSCULAR HEMOGLOBIN” value [3] was 23.43 pg and the “MEAN CORPUSCULAR HEMOGLOBIN CONCENTRATION” value [3] was 38.47 G/DL. The “MEAN CORPUSCULAR VOLUME” value [3] was 60.8 fL, the MONOCYTE [3] was 1% and the NEUTROPHIL [3] was 7.67%. The “NUCLEATED RED BLOOD CELLS” value [3] was 0 /100WBC, the “PLATELET COUNT” value [3] was 1214 x10E3/uL and the “ALANINE AMINOTRANSFERASE” value [3] was 59 u/L. For the same compound, the ALBUMIN [3] was 3.67 G/DL, the “ALKALINE PHOSPHATASE” value [3] was 384 u/L and the “ASPARTATE AMINOTRANSFERASE” value [3] was 87 u/L. For the same compound, the “BLOOD UREA NITROGEN” value [3] was 13 mg/dL, the “CARBON DIOXIDE” value [3] was 35.33 mmol/L and the CHLORIDE [3] was 99 MEQ/L. The CHOLESTEROL [3] was 84.33 mg/dL, the “CREATINE PHOSPHOKINASE” value [3] was 684.67 u/L and the CREATININE [3] was 0.26 mg/dL. For the same compound, the GLUCOSE [3] was 138.33 mg/dL, the “LACTATE DEHYDROGENASE” value [3] was 131 u/L and the LIPASE [3] was 9 u/L. It also gave a PHOSPHORUS [3] of 11.53 mg/dL, a POTASSIUM [3] of 5.74 MEQ/L and an SODIUM [3] of 143.93 MEQ/L. The “TOTAL BILIRUBIN” value [3] was 0.2 mg/dL, the “TOTAL PROTEIN” value [3] was 5.97 G/DL and the “URIC ACID” value [3] was 0.37 mg/dL. For the same compound, the “ABSOLUTE BASOPHIL” value [4] was 0 CELLS/uL, the “ABSOLUTE EOSINOPHIL” value [4] was 32 CELLS/uL and the “ABSOLUTE LYMPHOCYTE” value [4] was 12898.67 CELLS/uL. For the same compound, the “ABSOLUTE MONOCYTE” value [4] was 145 CELLS/uL, the “ABSOLUTE SEGMENTED NEUTROPHIL” value [4] was 424.33 CELLS/uL and the BASOPHIL [4] was 0%. For the same compound, the EOSINOPHIL [4] was 0.33%, the “ERYTHROCYTE COUNT” value [4] was 5.35 x10E6/uL and the HEMATOCRIT [4] was 31.83%. The HEMOGLOBIN [4] was 12.7 G/DL, the “LEUKOCYTE COUNT” value [4] was 13.5 x10E3/uL and the LYMPHOCYTE [4] was 95.33%. The “MEAN CORPUSCULAR HEMOGLOBIN” value [4] was 23.77 pg, the “MEAN CORPUSCULAR HEMOGLOBIN CONCENTRATION” value [4] was 39.9 G/DL and the “MEAN CORPUSCULAR VOLUME” value [4] was 59.53 fL. For the same compound, the MONOCYTE [4] was 1%, the NEUTROPHIL [4] was 3.33% and the “NUCLEATED RED BLOOD CELLS” value [4] was 0 /100WBC. For the same compound, the “PLATELET COUNT” value [4] was 1130.67 x10E3/uL, the “ALANINE AMINOTRANSFERASE” value [4] was 52.33 u/L and the ALBUMIN [4] was 3.8 G/DL. The “ALKALINE PHOSPHATASE” value [4] was 253 u/L, the “ASPARTATE AMINOTRANSFERASE” value [4] was 80.33 u/L and the “BLOOD UREA NITROGEN” value [4] was 13.67 mg/dL. The “CARBON DIOXIDE” value [4] was 33.33 mmol/L, the CHLORIDE [4] was 100.33 MEQ/L and the CHOLESTEROL [4] was 76.67 mg/dL. For the same compound, the “CREATINE PHOSPHOKINASE” value [4] was 375.67 u/L, the CREATININE [4] was 0.32 mg/dL and the GLUCOSE [4] was 145 mg/dL. The “LACTATE DEHYDROGENASE” value [4] was 188.33 u/L, the LIPASE [4] was 8.33 u/L and the PHOSPHORUS [4] was 11.47 mg/dL. The POTASSIUM [4] was 5.93 MEQ/L, the SODIUM [4] was 145.13 MEQ/L and the “TOTAL BILIRUBIN” value [4] was 0.2 mg/dL. For the same compound, the “TOTAL PROTEIN” value [4] was 5.77 G/DL and the “URIC ACID” value [4] was 0.83 mg/dL.
